The supplement of paper PMC12325586

System: MIA PaCa-2
Experimental: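 MIA PaCa-2 Tet-on shOFD1 pancreatic cancer cells (2000 cells/well, 96-well) were treated with Selleck FDA-approved library compounds at 0, 1, 5, 10, 25 and 50 µM, with extra concentrations added where needed, for 72 h at 37 °C. Knockdown wells also received 100 ng/mL doxycycline; control wells received DMSO without doxycycline. Viability was read by CCK-8 absorbance at 450 nm and normalised to DMSO control wells. IC50 was fitted in GraphPad Prism as a 4-parameter logistic with bottom fixed at 0 and top fixed at 1; at least 3 technical replicate wells per condition.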

[1] = OFD1 knockdown: no (no doxycycline)
[2] = OFD1 knockdown: yes (Tet-on shOFD1, 100 ng/mL doxycycline)

IC50 cell viability [1] | IC50 cell viability [2] | Structure (SMILES)
15.8 µM | 14.1 µM | Cc1nc(=O)c2cc(CN(C)c3ccc(C(=O)N[C@@H](CCC(=O)O)C(=O)O)s3)ccc2[nH]1 [S1192]
29.9 µM | 28.2 µM | O=C1CCC(N2C(=O)c3ccccc3C2=O)C(=O)N1 (configuration not stated) [S1193]
1.35 µM | 1.14 µM | C#Cc1cccc(Nc2ncnc3cc(OC)c(OCCCCCCC(=O)NO)cc23)c1 [S1194]
24.5 µM | 20 µM | CCc1c2c(nc3ccc(OC(=O)N4CCC(N5CCCCC5)CC4)cc13)-c1cc3c(c(=O)n1C2)COC(=O)[C@]3(O)CC [S1198]
55.1 µM | 49.9 µM | Nc1nc(Cl)nc2c1ncn2[C@H]1C[C@H](O)[C@@H](CO)O1 [S1199]
74.8 µM | 77.2 µM | Nc1ncn([C@H]2C[C@H](O)[C@@H](CO)O2)c(=O)n1 [S1200]
82.1 µM | 70.3 µM | O=S(=O)(O)CCSSCCS(=O)(=O)O [S1201]
2.38 µM | 2.28 µM | C[C@]12C=CC(=O)N[C@@H]1CC[C@@H]1[C@@H]2CC[C@]2(C)[C@@H](C(=O)Nc3cc(C(F)(F)F)ccc3C(F)(F)F)CC[C@@H]12 [S1202]
10 µM | 7.5 µM | COc1cc2nccc(Oc3ccc(NC(=O)Nc4cc(C)on4)c(Cl)c3)c2cc1OC [S1207]
1.85 µM | 1.52 µM | COc1cccc2c1C(=O)c1c(O)c3c(c(O)c1C2=O)CC(O)(C(=O)CO)CC3OC1CC(N)C(O)C(C)O1 (configuration not stated) [S1208]
3.34 µM | 2.54 µM | O=c1[nH]cc(F)c(=O)[nH]1 [S1209]
0.47 µM | 0.39 µM | CN(Cc1cnc2nc(N)nc(N)c2n1)c1ccc(C(=O)N[C@@H](CCC(=O)O)C(=O)O)cc1 [S1210]
1.66 µM | 1.5 µM | COc1nc(N)nc2c1ncn2[C@@H]1O[C@H](CO)[C@@H](O)[C@@H]1O [S1213]
0.55 µM | 0.53 µM | Nc1nc(Cl)nc2c1ncn2[C@@H]1O[C@H](CO)[C@@H](O)[C@@H]1F [S1218]
52.8 µM | 51.9 µM | CN(C)/N=N/c1[nH]cnc1C(N)=O [S1221]
0.63 µM | 0.58 µM | COc1cccc2c1C(=O)c1c(O)c3c(c(O)c1C2=O)C[C@@](O)(C(=O)CO)C[C@@H]3O[C@H]1C[C@H](N)[C@@H](O)[C@H](C)O1 [S1223]
60.3 µM | 57.3 µM | O=C(O)C(=O)O.[NH-][C@@H]1CCCC[C@H]1[NH-].[Pt+2] [S1224]
2.31 µM | 2.03 µM | COc1cc([C@@H]2c3cc4c(cc3[C@@H](O[C@@H]3O[C@@H]5CO[C@@H](C)O[C@H]5[C@H](O)[C@H]3O)[C@H]3COC(=O)[C@H]23)OCO4)cc(OC)c1O [S1225]
8.3 µM | 8.74 µM | O=C(c1ccc(OCCN2CCCCC2)cc1)c1c(-c2ccc(O)cc2)sc2cc(O)ccc12 [S1227]

IC50 cell viability [1] | IC50 cell viability [2] | Structure (SMILES)
2.26 µM | 1.95 µM | Nc1nc(F)nc2c1ncn2[C@@H]1O[C@H](COP(=O)(O)O)[C@@H](O)[C@@H]1O [S1229]
54.5 µM | 49.8 µM | CC[C@@]1(O)C(=O)OCc2c1cc1n(c2=O)Cc2cc3c(CN(C)C)c(O)ccc3nc2-1 [S1231]
12.5 µM | 12.4 µM | N#Cc1ccc(C(c2ccc(C#N)cc2)n2cncn2)cc1 [S1235]
12 µM | 11.3 µM | Cn1nnc2c(C(N)=O)ncn2c1=O [S1237]
20.9 µM | 21.3 µM | CC[C@]1(O)C[C@H]2CN(CCc3c([nH]c4ccccc34)[C@@](C(=O)OC)(c3cc4c(cc3OC)N(C=O)[C@H]3[C@@](O)(C(=O)OC)[C@H](OC(C)=O)[C@]5(CC)C=CCN6CC[C@]43[C@@H]65)C2)C1 [S1241]
51.5 µM | 51.9 µM | S=C(NCc1ccc2c(c1)OCO2)N1CCN(c2ncnc3c2oc2ccccc23)CC1 [S1244]
29.5 µM | 27.8 µM | CNC(=O)c1ccc(N2C(=S)N(c3ccc(C#N)c(C(F)(F)F)c3)C(=O)C2(C)C)cc1F [S1250]
25.2 µM | 24.3 µM | Cc1ccc(-c2cc(C(F)(F)F)nn2-c2ccc(S(N)(=O)=O)cc2)cc1 [S1261]
17 µM | 17.6 µM | CCCS(=O)(=O)Nc1ccc(F)c(C(=O)c2c[nH]c3ncc(-c4ccc(Cl)cc4)cc23)c1F [S1267]
2.56 µM | 2.43 µM | CN(C)c1nc(N(C)C)nc(N(C)C)n1 [S1278]
2.36 µM | 2.4 µM | CCCCCCNC(=O)n1cc(F)c(=O)[nH]c1=O [S1289]
11.5 µM | 11.4 µM | O=c1[nH]c(=O)n([C@H]2C[C@H](O)[C@@H](CO)O2)cc1F [S1299]
48.4 µM | 43.1 µM | O=c1[nH]c(=O)n(C2CCCO2)cc1F (configuration not stated) [S1300]
2.01 µM | 1.81 µM | CC(=O)O[C@]1(C(C)=O)CC[C@H]2[C@@H]3C=C(C)C4=CC(=O)CC[C@]4(C)[C@H]3CC[C@@]21C [S1304]
27.5 µM | 27.7 µM | S=c1[nH]cnc2nc[nH]c12 [S1305]
30.1 µM | 30.4 µM | CN(N=O)C(=O)NC1C(O)OC(CO)C(O)C1O (configuration not stated) [S1312]
8.52 µM | 7.75 µM | C[C@@H]1C[C@H]2[C@@H]3CCC4=CC(=O)C=C[C@]4(C)[C@@]3(F)[C@@H](O)C[C@]2(C)[C@@]1(O)C(=O)CO [S1322]
18.1 µM | 17.6 µM | COc1cc2nc(N3CCN(C(=O)C4COc5ccccc5O4)CC3)nc(N)c2cc1OC (configuration not stated) [S1324]
2.53 µM | 2.01 µM | COc1cc(OC)c(/C=C/S(=O)(=O)Cc2ccc(OC)c(NCC(=O)O)c2)c(OC)c1 [S1362]

IC50 cell viability [1] | IC50 cell viability [2] | Structure (SMILES)
70.3 µM | 68.4 µM | N#CC[C@H](C1CCCC1)n1cc(-c2ncnc3[nH]ccc23)cn1 [S1378]
12.2 µM | 11.5 µM | CC1=C(/C=C/C(C)=C/C=C/C(C)=C\C(=O)O)C(C)(C)CCC1 [S1379]
53.8 µM | 56.4 µM | CCOc1cc2ncc(C#N)c(Nc3ccc(F)c(Cl)c3)c2cc1NC(=O)/C=C/CN(C)C [S1392]
1.44 µM | 1.4 µM | Cc1ccc(C(=O)N(CCCN)[C@@H](c2nc3cc(Cl)ccc3c(=O)n2Cc2ccccc2)C(C)C)cc1 [S1452]
70.2 µM | 64.3 µM | COc1nc(C)cnc1NS(=O)(=O)c1cccnc1-c1ccc(-c2nnco2)cc1 [S1456]
46.5 µM | 45.7 µM | C=C1/C(=C\C=C2/CCC[C@]3(C)[C@@H]([C@H](C)/C=C/[C@H](C)C(C)C)CC[C@@H]23)C[C@@H](O)C[C@@H]1O [S1467]
3.75 µM | 3.86 µM | Cc1ccc(C(=O)Nc2ccc(CN3CCN(C)CC3)c(C(F)(F)F)c2)cc1C#Cc1cnc2cccnn12 [S1490]
59 µM | 54.2 µM | Nc1nc(F)nc2c1ncn2[C@@H]1O[C@H](CO)[C@@H](O)[C@@H]1O [S1491]
4.04 µM | 3.46 µM | CC(C)(C)Cn1c(N)nc2ccc(-c3[nH]c(C(C)(C)C)nc3-c3ccc(F)cc3)nc21 [S1494]
11.9 µM | 11.5 µM | COc1c(C)c2c(c(O)c1C/C=C(\C)CCC(=O)OCCN1CCOCC1)C(=O)OC2 [S1501]
23.7 µM | 23.5 µM | CN1CC(=O)N2[C@H](c3ccc4c(c3)OCO4)c3[nH]c4ccccc4c3C[C@@H]2C1=O [S1512]
5.47 µM | 5.05 µM | CCCCc1nc2cc(/C=C/C(=O)NO)ccc2n1CCN(CC)CC [S1515]
47.6 µM | 45.5 µM | COc1cc(Nc2nc3ccccc3nc2NS(=O)(=O)c2ccc(NC(=O)c3ccc(C)c(OC)c3)cc2)cc(OC)c1 [S1523]
13.8 µM | 14.4 µM | CC(C)(C)c1cc(NC(=O)Nc2ccc(-c3cn4c(n3)sc3cc(OCCN5CCOCC5)ccc34)cc2)no1 [S1526]
70.7 µM | 65 µM | NC(=O)C1CCCc2c1[nH]c1ccc(Cl)cc21 (configuration not stated) [S1541]
12.4 µM | 12.3 µM | Cc1nc(-c2ccc(OCC(C)C)c(C#N)c2)sc1C(=O)O [S1547]
16.5 µM | 17 µM | CCOc1ccc(Cc2cc([C@@H]3O[C@H](CO)[C@@H](O)[C@H](O)[C@H]3O)ccc2Cl)cc1 [S1548]
28.8 µM | 27.2 µM | OC(CNCC(O)C1CCc2cc(F)ccc2O1)C1CCc2cc(F)ccc2O1 (configuration not stated) [S1549]

Structure (SMILES) | IC50 cell viability [1] | IC50 cell viability [2]
C=C1C[C@@H]2[C@H](CC[C@]3(C)C(=O)CC[C@@H]23)[C@@]2(C)C=CC(=O)C=C12 [S1196] | 53.5 µM | 50.2 µM
Cn1c(CCCC(=O)O)nc2cc(N(CCCl)CCCl)ccc21 [S1212] | 15.8 µM | 17 µM
Cc1c(N)nc(C(CC(N)=O)NCC(N)C(N)=O)nc1C(=O)NC(C(=O)NC(C)C(O)C(C)C(=O)NC(C(=O)NCCc1nc(-c2nc(C(=O)NCCC[S+](C)C)cs2)cs1)C(C)O)C(O[C@@H]1O[C@@H](CO)[C@@H](O)[C@H](O)[C@@H]1O[C@H]1O[C@H](CO)[C@@H](O)[C@H](OC(N)=O)[C@@H]1O)c1cnc[nH]1 (some centres not stated) [S1214] | 1.84 µM | 1.69 µM
O=P1(NCCCl)OCCCN1CCCl (configuration not stated) [S1302] | 53 µM | 55.2 µM
C/C(=C\c1csc(C)n1)[C@@H]1C[C@@H]2O[C@]2(C)CCC[C@H](C)[C@H](O)[C@@H](C)C(=O)C(C)(C)[C@@H](O)CC(=O)O1 [S1364] | 0.76 µM | 0.87 µM
